Key:
[1] = system: VSV-G pseudotyped HIV-1 luciferase reporter virus (HIVluc); format: cell-based
[2] = system: HIV-1NL4-3; test: HIV-1 NL4-3 replication assay in SupT1 cells (p24 ELISA)
[3] = biological target: recombinant HIV-1 protease (Human immunodeficiency virus type 1 group M subtype B, UniProt P03366); test: HIV-1 protease in vitro activity assay (FRET peptide)
[4] = Solubility (UV-vis spectroscopy, solvents); settings: saturated solutions

mixture of α, β and γ-N—N-dimethyl[70]fulleropyrrolidinium iodide [Compound 2a]
Effect on HIV-1 infectivity (FIG. 1) [1]: potently blocked the infectivity of HIV-1 | infectivity as compared to control (100%) infectivity [1]: 0.026% | reduction of infectivity / inhibition [1]: 72% | Effect on HIV-1 replication (FIG. 9C) ([2]; 3 μM at time of infection, washed after 24 h): potent inhibitory effect | Effect on HIV-1NL4-3 replication (FIG. 3) ([2]; 6 μM for 24 hrs, given 24 hours after infection, p24 followed seven additional days): able to impair viral replication

α-N,N-dimethyl[70]fulleropyrrolidinium iodide [Compound 2b]
Effect on HIV-1 infectivity (FIG. 1) [1]: potently blocked the infectivity of HIV-1 | infectivity as compared to control (100%) infectivity [1]: 0.047% | reduction of infectivity / inhibition [1]: 52% | inhibition of protease activity ([3]; at 80 μM): 65% | inhibition of protease activity ([3]; at 40 (unit not given)): 24%

β-N,N-dimethyl[70]fulleropyrrolidinium iodide [Compound 2c]
Effect on HIV-1 infectivity (FIG. 1) [1]: potently blocked the infectivity of HIV-1 | infectivity as compared to control (100%) infectivity [1]: 0.003% | reduction of infectivity / inhibition [1]: 71% | solubility in H2O:DMSO (9:1) [4]: 0.252 nM

CC(C)(C)NC(=O)[C@@H]1CN(Cc2cccnc2)CCN1C[C@@H](O)C[C@@H](Cc1ccccc1)C(=O)N[C@H]1c2ccccc2C[C@H]1O [Indinavir, reference compound]
reduction of infectivity / inhibition [1]: 96.6%

Source: patent US10358419B2, “1,3-dipolar [70]fulleropyrrolidinium iodide derivatives” (priority 2015, dated 2019)
